Here are results for 2 compounds from article PMC8881573, “Inhibition of SRP-dependent protein secretion by the bacterial alarmone (p)ppGpp” (Nature Communications, 2022).

Structures are written as SMILES.

The target of one experiment is T1, (Ec)FtsY-NG (Escherichia coli, UniProt P10121).
T1 construct: purified NG domains of (Ec)Ffh, (Ec)FtsY and (Bs)Ffh; His6 (C); made in house; host or cells: E. coli BL21 (DE3)
Put plainly: Microscale thermophoresis (MST) ligand binding. More on the design: species or system E. coli. Conditions: NG domain labeled with NT 647, 21 °C; read-out: (Ec)FtsY KD MST. As to the method:
(§1) Ligand binding assays with purified NG domains of (Ec)Ffh, (Ec)FtsY and (Bs)Ffh proteins were carried out by microscale thermophoresis (MST)[80]. All experiments were performed on a Monolith NT.115 (NanoTemper Technologies GmbH, Munich, Germany; software: NanoTemper Control Version 2.0.2.29) at 21 °C (red LED power was set to 50–100% and infrared laser power to 75%). After labeling of primary amines within (Ec)Ffh, (Ec)FtsY, and (Bs)Ffh (50 µM each) with the dye NT 647 (according to the manufacturers protocol), the proteins were re-buffered in SEC buffer containing 20 mM HEPES-Na, 20 mM KCl, 20 mM MgCl2, 200 mM NaCl (final pH 7.5), 10 mg ml^−1 BSA and 0.007% Tween. Two-hundred nanomolar of (Ec)Ffh, (Ec)FtsY, and (Bs)Ffh were titrated with GDP, GTP, ppGpp, and pppGpp starting from a concentration ranging between 0.75 and 3 mM, respectively. At least six independent MST experiments per ligand and protein were recorded at 680 nm and analyzed using NanoTemper Analysis version 1.5.37 and 1.2.009, and Origin8G software suits.
In general terms: MST reads how a fluorescent partner responds to local heating, with and without ligand.

For a further experiment, the target named is T2, (Ec)Ffh-NG (Escherichia coli, UniProt P0AGD7).
T2 construct: purified NG domains of (Ec)Ffh, (Ec)FtsY and (Bs)Ffh; His6 (C); made in house; host or cells: E. coli BL21 (DE3)
T2 sequence (P0AGD7 1-296): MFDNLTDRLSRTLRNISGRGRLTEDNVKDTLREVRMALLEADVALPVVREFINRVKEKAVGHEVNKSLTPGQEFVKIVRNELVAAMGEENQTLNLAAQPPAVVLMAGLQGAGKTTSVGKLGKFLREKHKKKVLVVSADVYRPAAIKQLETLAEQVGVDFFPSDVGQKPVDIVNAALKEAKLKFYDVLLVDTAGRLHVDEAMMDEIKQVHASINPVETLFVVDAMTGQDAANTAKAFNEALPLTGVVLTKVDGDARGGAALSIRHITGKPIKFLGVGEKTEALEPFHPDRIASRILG
Put plainly: Microscale thermophoresis (MST) ligand binding. More on the design: species or system E. coli. As to conditions: NG domain labeled with NT 647, 21 °C. As to the method:
as §1

For experiment [1], the system named is SRP-dependent membrane insertion of YohP into INV. The experiment in a line: Post-translational YohP insertion into inverted inner membrane vesicles (INV), proteinase K resistance. It is filed as biochemical, E. coli. Conditions: at 0.6 mM (p)ppGpp, 10 µM GTP. On the procedure: For protein transport assay, YohP cloned in pET19b was synthesized in vitro using a purified transcription/translation system composed of cytosolic translation factors (CTF) and high salt-washed ribosomes[35],[36]. The ^35S-Methionine/^35S-Cysteine labeling mix was obtained from Perkin Elmer (Wiesbaden, Germany). INVs of E. coli cells were prepared by sucrose gradient centrifugation of cell extracts as described[76] and resuspended in INV buffer (50 mM triethanolamine acetate, pH 7.5, 200 mM sucrose, 1 mM DTT). […] The supernatant containing YohP was then incubated with INV, liposomes or SecYEG-proteoliposomes for 10 min at 37 °C in the presence of 10 µM GTP. […] Next, the samples were denatured at 56 °C for 10 min in 35 μL of TCA loading dye (prepared by mixing one part of solution III (1 M dithiothreitol) with 4 parts of solution II (6.33% (w/v) SDS, 0.083 M Tris, 30% (v/v) glycerol and 0.053% (w/v) bromophenol blue) and 5 parts of solution I (0.2 M Tris, 0.02 M EDTA pH 8)) and analyzed after separation on a modified SDS-PAGE[35] by phosphor imaging. For quantification of YohP insertion, autoradiography samples were analyzed by using the ImageQuant (GE Healthcare) software. […] Mean values and SEM values were determined by using either Excel (Microsoft Corp.) or GraphPad Prism (GraphPad Prism Corp. San Diego). […]

For a further experiment, the target named is T3, (Bs)Ffh-NG (Bacillus subtilis, UniProt P37105).
T3 construct: purified NG domains of (Ec)Ffh, (Ec)FtsY and (Bs)Ffh; His6 (N); made in house; host or cells: E. coli Rosetta pLysS
T3 sequence (P37105 1-297 limits assumed): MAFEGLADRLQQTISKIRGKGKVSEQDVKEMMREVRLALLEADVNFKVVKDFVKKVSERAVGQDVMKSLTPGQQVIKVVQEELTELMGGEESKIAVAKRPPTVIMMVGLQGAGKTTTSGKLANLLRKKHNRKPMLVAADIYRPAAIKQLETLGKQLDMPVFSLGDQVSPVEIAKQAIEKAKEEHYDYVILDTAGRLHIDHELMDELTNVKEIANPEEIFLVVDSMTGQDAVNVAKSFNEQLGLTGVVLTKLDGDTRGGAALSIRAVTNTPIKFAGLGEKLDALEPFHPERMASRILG
The experiment in a line: Microscale thermophoresis (MST) ligand binding. More on the design: species or system B. subtilis. As to conditions: NG domain labeled with NT 647, 21 °C. On the procedure:
as §1

T1 sequence (P10121 197-497): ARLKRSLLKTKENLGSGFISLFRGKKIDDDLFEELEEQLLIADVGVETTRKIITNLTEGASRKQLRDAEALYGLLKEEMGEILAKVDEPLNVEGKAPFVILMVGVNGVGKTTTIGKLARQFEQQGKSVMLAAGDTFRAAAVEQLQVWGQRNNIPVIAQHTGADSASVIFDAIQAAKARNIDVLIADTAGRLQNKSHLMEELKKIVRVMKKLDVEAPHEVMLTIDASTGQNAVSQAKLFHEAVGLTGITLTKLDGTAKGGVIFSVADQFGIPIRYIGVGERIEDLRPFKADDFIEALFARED

For orientation: Kd means the concentration at which binding is half-saturated. Turning to `Nc1nc2c(ncn2[C@@H]2O[C@H](COP(=O)(O)OP(=O)(O)OP(=O)(O)O)[C@@H](OP(=O)(O)OP(=O)(O)O)[C@H]2O)c(=O)[nH]1` [pppGpp], the figures for the Kd at (Ec)FtsY-NG, on (Ec)Ffh-NG and on (Bs)Ffh-NG were 66.6 µM, 68.3 µM and 27.2 ± 9.8 µM, respectively. Further, the “YohP insertion into INV” value in experiment [1] was “complete block of insertion”.
Consider `Nc1nc2c(ncn2[C@@H]2O[C@H](COP(=O)(O)OP(=O)(O)O)[C@@H](OP(=O)(O)OP(=O)(O)O)[C@H]2O)c(=O)[nH]1` [ppGpp], for which the Kd was 30 µM at (Ec)FtsY-NG, 13.5 µM at (Ec)Ffh-NG and 32.2 ± 7.5 µM on (Bs)Ffh-NG. Further, the “YohP insertion into INV” value in experiment [1] is “complete block of insertion”.
